Reference: patent US5869271A, “G-beta-gamma regulated phosphatidylinositol-3' kinase” (Onyx Pharmaceuticals, priority 1997, dated 1999)

Columns and labels:
[1] = system: neutrophils; conditions: cited from earlier work
[2] = biological target: T1, PI3K activity in α-(EE)-p101 immunoprecipitates from U937 cells (Homo sapiens, UniProt P48736); test: PI3K assay on α-(EE)-p101 immunoprecipitates from transfected U937 cells; type: biochemical
T1 construct: U937 cells (human) contain an endogenous PI3K catalytic subunit; expressed in transfected cells; host or cells: U937 (p101 transfected, catalytic subunit endogenous)
Protocol: U937 cells were transiently transfected with mammalian expression vectors encoding either (EE)120 or (EE)101, co-transfected in combination with mammalian expression vectors encoding myc101, myc120, or an irrelevant control myc fusion protein, as indicated. A total of 40 μg of vector DNA was used. After co-transfection, the cells lysed, precleaned and immunoprecipitated with protein G sepharose covalently cross-linked to α-(EE) monoclonal antibody as described more fully in the Examples herein. The resulting immunoprecipitates were washed and Gβγ-activated (1 μM, final concentration) PI3K activity was assayed. The PI3K activity detected in immunoprecipitates from cells transfected with irrelevant (EE)-tagged protein, either with or without Gβγs was subtracted from the data shown (these were means of 1896 dpm and 2862 dpm in the absence and presence of Gβγs, respectively).
If the PI3K assays were performed on immunoprecipitates from U937 cells (see following examples) then the PI3K was immobilized on 10 μl of packed protein G Sepharose beads in an ice-cold buffer defined above. 30 μl of a mixture of phospholipids with or without Gβγs and/or Gαs (either GDP-bound or activated) was added to the 5 μl fractions, or 10 μl of beads, and mixed. […]

[3] = biological target: free p120 PI3K catalytic subunit (Sus scrofa, UniProt O02697); test: PI3K assay on free recombinant p120 (Sf9-derived); type: biochemical, porcine
Protocol: Assays contained either 7 nM p101/p120 or 36 nM p120 alone (final concentrations) which were incubated with various reagents; 10 mM NaF and 30 μM AlCl3 (A/F) ; 1 μM Gβγ-subunits (βγ); 2 μM Gα-GDP; 100 nM wortmannin (W) or 50 μM tyrosine phosphorylated peptide (PY) for a total of 15 minutes (at 0° C.) prior to starting the assays by adding [γ^32 P]-ATP; [^32 P]-incorporated into [^32 P]-PtdIns(3,4,5) P3 was quantified. The data shown are means (n=2).
Purified aliquots of Sf9 -derived or pig neutrophil cytosol-derived PI3K were diluted in ice-cold 0.12M NaCl, 25 mM HEPES, 1 mM EGTA, 1 mM DTT, 1 mg-ml^-1 BSA, 1% betaine, 0.02%, w/v, Tween-20, pH 7.4, 0° C. to an appropriate extent, then 5 μl aliquots were stored on ice until assayed. […] 30 μl of a mixture of phospholipids with or without Gβγs and/or Gαs (either GDP-bound or activated) was added to the 5 μl fractions, or 10 μl of beads, and mixed. After 10 minutes on ice, 5-10 μl of last wash buffer, supplemented with MgCl2 to give a final concentration in the extant assay volume of 3.5 mM, was added and mixed. Six minutes later, 5 μl of last wash buffer was added (to give a final assay volume of 50 μl) containing [^32 ]-ATP (typically 10 μCi assay^-1, Amersham, PB10168) and 3.5 mM MgCl2, tubes were mixed and transferred to a 30° C. water bath. […]

[4] = system: Gβγ-activated PI3K (PI3Ks A and B; p117/p101 and p120/p101 heterodimers); test: PI3K assay on purified pig neutrophil Gβγ-activated PI3Ks A and B; type: biochemical; conditions: 100 nM wortmannin; 5 μM ATP in the assays

free p120 PI3K catalytic subunit, sequence (O02697 whole entry): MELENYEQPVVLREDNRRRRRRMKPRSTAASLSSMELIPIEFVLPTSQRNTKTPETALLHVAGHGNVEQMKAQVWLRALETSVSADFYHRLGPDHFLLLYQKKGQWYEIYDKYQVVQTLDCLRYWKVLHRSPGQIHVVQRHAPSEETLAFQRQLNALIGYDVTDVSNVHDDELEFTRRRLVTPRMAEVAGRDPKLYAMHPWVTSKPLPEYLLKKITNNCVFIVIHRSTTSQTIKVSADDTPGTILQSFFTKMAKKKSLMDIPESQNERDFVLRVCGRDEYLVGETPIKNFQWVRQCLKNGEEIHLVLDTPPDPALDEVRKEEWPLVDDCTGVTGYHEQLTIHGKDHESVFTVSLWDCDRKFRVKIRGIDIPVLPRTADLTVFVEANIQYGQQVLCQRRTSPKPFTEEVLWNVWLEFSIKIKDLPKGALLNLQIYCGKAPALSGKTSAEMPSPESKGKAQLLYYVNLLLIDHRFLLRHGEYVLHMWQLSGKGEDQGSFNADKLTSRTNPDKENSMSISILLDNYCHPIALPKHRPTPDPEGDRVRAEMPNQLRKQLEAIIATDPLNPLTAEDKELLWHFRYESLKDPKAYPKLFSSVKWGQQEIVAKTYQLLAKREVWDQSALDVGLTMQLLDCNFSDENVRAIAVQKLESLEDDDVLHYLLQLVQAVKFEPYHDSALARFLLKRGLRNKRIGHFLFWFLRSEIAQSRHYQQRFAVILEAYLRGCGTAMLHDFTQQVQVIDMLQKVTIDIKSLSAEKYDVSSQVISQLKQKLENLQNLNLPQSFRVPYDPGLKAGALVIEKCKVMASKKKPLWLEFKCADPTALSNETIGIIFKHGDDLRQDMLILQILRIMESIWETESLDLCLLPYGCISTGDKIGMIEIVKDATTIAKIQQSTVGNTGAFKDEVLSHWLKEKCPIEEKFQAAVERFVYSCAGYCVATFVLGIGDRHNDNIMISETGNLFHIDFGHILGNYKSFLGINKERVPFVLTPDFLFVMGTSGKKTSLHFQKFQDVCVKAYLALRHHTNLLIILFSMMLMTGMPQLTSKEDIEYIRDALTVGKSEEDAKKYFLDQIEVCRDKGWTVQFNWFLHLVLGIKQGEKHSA
T1 sequence (P48736 whole entry): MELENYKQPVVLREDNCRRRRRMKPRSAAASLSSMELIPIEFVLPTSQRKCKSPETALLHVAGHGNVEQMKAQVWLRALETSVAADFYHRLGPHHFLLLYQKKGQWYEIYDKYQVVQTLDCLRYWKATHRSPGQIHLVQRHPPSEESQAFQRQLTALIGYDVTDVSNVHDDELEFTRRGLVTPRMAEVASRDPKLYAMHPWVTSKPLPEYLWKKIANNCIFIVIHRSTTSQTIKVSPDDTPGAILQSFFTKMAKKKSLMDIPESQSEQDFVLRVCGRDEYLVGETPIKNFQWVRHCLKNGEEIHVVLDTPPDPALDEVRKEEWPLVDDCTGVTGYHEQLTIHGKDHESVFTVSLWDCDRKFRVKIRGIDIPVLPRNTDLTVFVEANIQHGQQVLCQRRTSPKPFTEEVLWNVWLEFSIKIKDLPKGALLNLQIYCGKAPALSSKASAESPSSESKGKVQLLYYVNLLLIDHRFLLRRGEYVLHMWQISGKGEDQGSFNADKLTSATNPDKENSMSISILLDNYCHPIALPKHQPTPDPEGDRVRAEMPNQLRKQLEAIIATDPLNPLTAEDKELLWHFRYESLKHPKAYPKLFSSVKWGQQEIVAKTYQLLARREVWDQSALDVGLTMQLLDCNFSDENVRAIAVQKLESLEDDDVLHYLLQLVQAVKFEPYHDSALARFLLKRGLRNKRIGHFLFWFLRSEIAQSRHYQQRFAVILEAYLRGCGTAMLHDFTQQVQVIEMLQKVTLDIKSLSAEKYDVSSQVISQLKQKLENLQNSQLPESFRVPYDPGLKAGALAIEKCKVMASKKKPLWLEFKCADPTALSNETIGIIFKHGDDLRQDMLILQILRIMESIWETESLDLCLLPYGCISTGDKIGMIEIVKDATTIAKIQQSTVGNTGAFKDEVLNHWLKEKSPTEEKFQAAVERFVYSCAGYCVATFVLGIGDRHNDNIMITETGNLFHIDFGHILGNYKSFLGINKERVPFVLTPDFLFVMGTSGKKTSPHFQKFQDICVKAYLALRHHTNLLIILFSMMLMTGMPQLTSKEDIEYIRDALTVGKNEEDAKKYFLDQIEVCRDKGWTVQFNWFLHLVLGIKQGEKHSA
T1 sequence (as listed by the source partner): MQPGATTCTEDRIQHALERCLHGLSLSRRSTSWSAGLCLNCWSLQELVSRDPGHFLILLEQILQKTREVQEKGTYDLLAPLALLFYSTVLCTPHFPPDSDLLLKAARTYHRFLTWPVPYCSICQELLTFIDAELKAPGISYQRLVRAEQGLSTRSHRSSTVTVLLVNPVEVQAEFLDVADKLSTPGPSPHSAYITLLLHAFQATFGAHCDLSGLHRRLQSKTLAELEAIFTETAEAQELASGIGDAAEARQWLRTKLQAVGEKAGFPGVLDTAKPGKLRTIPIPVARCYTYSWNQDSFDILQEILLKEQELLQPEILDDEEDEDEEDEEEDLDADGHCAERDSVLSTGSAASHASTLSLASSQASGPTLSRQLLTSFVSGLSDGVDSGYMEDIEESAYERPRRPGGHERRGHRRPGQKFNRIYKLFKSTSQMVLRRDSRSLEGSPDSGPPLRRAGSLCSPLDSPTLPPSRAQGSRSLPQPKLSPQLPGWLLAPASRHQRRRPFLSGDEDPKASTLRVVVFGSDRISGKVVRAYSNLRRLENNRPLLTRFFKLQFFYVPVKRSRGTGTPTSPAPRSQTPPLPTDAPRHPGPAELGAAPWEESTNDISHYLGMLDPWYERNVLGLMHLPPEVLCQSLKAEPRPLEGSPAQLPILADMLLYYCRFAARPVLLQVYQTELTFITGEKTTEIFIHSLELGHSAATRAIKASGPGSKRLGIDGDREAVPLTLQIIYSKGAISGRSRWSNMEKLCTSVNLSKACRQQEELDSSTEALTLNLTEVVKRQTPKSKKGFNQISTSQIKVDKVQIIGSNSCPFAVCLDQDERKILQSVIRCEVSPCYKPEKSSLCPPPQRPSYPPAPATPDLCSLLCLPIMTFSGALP

## COC[C@H]1OC(=O)c2coc3c2[C@@]1(C)C1=C(C3=O)[C@@H]2CCC(=O)[C@@]2(C)C[C@H]1OC(C)=O [wortmannin]
[1]; Thelen et al., 1994
  fMLP-induced respiratory burst response: prevents
[1]
  superoxide production in neutrophils: shutdown of superoxide production
[2]
  wortmannin sensitivity of PI3K activity in α-(EE)-p101 immunoprecipitates: wortmannin-sensitive
[3]
  wortmannin sensitivity of free p120 PI3K activity: wortmannin-sensitive
[4]
  inhibition of PI3K activity by wortmannin: completely inhibited
